Ends that are not written are not given here.
System: MCA205 fibrosarcoma cells
Experiment: MCA205 subcutaneous model, tumor growth kinetics
Type: in vivo, C57BL/6 mice
Details: larazotide 2 days per week with anti-PD1 antibody i.p. at 3 day intervals

GGVLVQPG [larazotide]
enhancement of anti-PD1 effect on MCA205 tumor progression: did not appear to enhance this effect

Source: patent US11278587B2 (9 METERS BIOPHARMA, INC., priority 2018, dated 2022)
